Drawing on ChEMBL document CHEMBL3091316, “Antiangiogenic tocotrienol derivatives from Garcinia amplexicaulis” (J Nat Prod, 2013), this text covers inhibition and Activity for two molecules.

Calls of active or inactive are those of the source. The calls are words filed in the database; no cut-off is given here.

Data set [1] relates to HUVEC. As to the kind of experiment: Inhibition of VEGF-induced HUVEC proliferation at 25 nM to 2.5 uM incubated for 30 mins prior to VEGF challenge measured after 24 hrs by fluorescence assay. The settings on record: Homo sapiens. Format: functional, cell-based.
Data set [2] deals with HUVEC. Put plainly: Antimigratory activity in VEGF-induced HUVEC assessed as decrease in cell migration at 25 nM to 2.5 uM incubated for 30 mins prior to VEGF challenge measured after 24 hrs by Transwell assay. The format is functional, cell-based. The settings on record: Homo sapiens.
In data set [3] the test system is HUVEC. Put plainly: Antiadhesive activity in HUVEC assessed as decrease in cell adhesion at 25 nM to 2.5 uM after 24 hrs by crystal violet staining technique. Format: functional, cell-based. The note with it: Homo sapiens.
Data set [4] has as its system HUVEC. As to the kind of experiment: Cytotoxicity against HUVEC assessed as cell viability at 25 nM to 2.5 uM after 24 to 48 hrs by MTT assay. The format is cell-based. The settings on record: human, 0.025 µM. For orientation: Tetrazolium dyes change colour on reduction, which living cells bring about.
The subject of data set [5] is HUVEC. As to the kind of experiment: Antiangiogenic activity in HUVEC assessed as inhibition of VEGF-induced capillary network formation at 25 nM to 2.5 uM after 24 hrs by matrigel assay. The format is functional, cell-based. The settings on record: Homo sapiens.
In data set [6] the test system is HUVEC. Put plainly: Antimigratory activity in VEGF-induced HUVEC assessed as decrease in cell migration at 2.5 uM incubated for 30 mins prior to VEGF challenge measured after 24 hrs by Transwell assay. The format is functional, cell-based. The settings on record: Homo sapiens.

Take `C/C(=C\CC/C(C)=C/CC[C@]1(C)CCc2cc(O)c(C)c(C)c2O1)CCC=C(CO)CO`: in the data set with HUVEC [1], the inhibition entry was “Active”. The result with HUVEC [2] and in the data set with HUVEC [3] was inactive. In the data set on HUVEC [4], the Activity entry is on record as “Non-toxic”. In the data set on HUVEC [5], the result was Active.

With `C/C(=C\CC/C(C)=C/CC[C@]1(C)CCc2cc(O)cc(C)c2O1)CCC=C(CO)CO`, the inhibition entry in the data set on HUVEC [1] is “Active”. Further, the outcome in the data set with HUVEC [3], in the data set with HUVEC [6] and with HUVEC [5] was Active. Besides, the Activity result in the data set with HUVEC [4] was “Non-toxic”.
